This series is described as follows: Physical characteristics of LNPs (particle size, PDI). Format: physicochemical. As to conditions: for PDI DNA / Particle Size (nm) DNA: LNP with Fluc DNA, compound/DOPE/Cholesterol/DMG-PEG2000 38/50/10.0/2.0, Lipid:DNA 45:1 (w/w); for PDI RNA / Particle Size (nm) RNA: LNP with Fluc mRNA, compound/DOPE/Cholesterol/DMG-PEG2000 41.44/45.85/10/2.7, Lipid:RNA 40:1 (w/w). On the procedure: LNP compositions of the present disclosure comprising exemplary compounds of Formula (I) were prepared by combining various percentages of an exemplary compound of Formula (I), the phospholipid DOPE, the structural lipid cholesterol (Chol) and 1,2-dimyristoyl-sn-glycerol methoxypolyethylene glycol (DMG-PEG2000; Avanti Polar Lipids, Alabaster, Alabama, USA).
Individual 25 mg/ml stock solutions were prepared by solubilizing the lipids in 200-proof HPLC-grade ethanol and stock solutions were stored at −80° C. until formulated. At the time of formulation, the lipid stock solutions were briefly allowed to equilibrate to room temp and then placed on a hot plate maintained at a temperature range of 50-55° C.
A 1 mg/ml solution of the desired mRNA or DNA to be incorporated into the LNPs was added to 150 mM sodium acetate buffer (pH 5.2) to form a stock solution and kept on ice. The aqueous mRNA or DNA was then added to the lipids as shown in Table 4 or 5 and hand-mixed vigorously with a single channel pipettor.
The resultant mRNA or DNA LNP compositions were then transferred to a Repligen Float-A-Lyzer dialysis device-having a molecular weight cut off (MWCO) of 8-10 kDa (Spectrum Chemical Mfg. Corp, CA, USA) and processed by dialysis against phosphate buffered saline (PBS) (dialysate: dialysis buffer volume at least 1:200 v/v), pH 7.4 overnight at 4° C. (or alternatively room temperature for at least 4 hours), to remove the 25% ethanol and achieve a complete buffer exchange. In some experiments the LNPs were further concentrated by in an Amicon® Ultra-4 centrifugal filter unit, MWCO-30 kDa (Millipore Sigma, USA) spun at ˜4100 x g in an ultracentrifuge. The mRNA and DNA LNPs were then stored at 4° C. until further use.
LNP compositions of the present disclosure comprising mRNA or DNA encoding firefly luciferase (hereafter “Fluc”; TriLink) and COMPOUNDS 5-49 were prepared as described in Example 61 by combining one of COMPOUNDS 5-49, the phospholipid DOPE, the structural lipid cholesterol (Chol) and 1,2-dimyristoyl-sn-glycerol methoxypolyethylene glycol (DMG-PEG2000) in the percentages presented in Tables 6 and 7:
The physical characteristics of the resulting LNPs were analyzed.
A 1 mg/ml solution of the 5′-CleanCap--fLuciferase mRNA (TriLink Biotech) to be incorporated into the LNPs was added to 150 mM sodium acetate buffer (pH 5.2) to form a stock solution and kept on ice. The lipid phase was mixed with the aqueous mRNA phase inside a microfluidic chip using a NanoAssemblr® instrument (Precision Nanosystems, Vancouver, BC, Canada) according to the manufacturer's instructions to form LNP compositions comprising encapsulated mRNAs.
The average particle size diameter of the LNPs was approximately 75-150 nm.

This note sets out measurements from US20250099383A1, “COMPOSITIONS AND METHODS FOR DELIVERY OF NUCLEIC ACIDS” (Poseida Therapeutics, Inc., priority 2022, published 2025).

In the case of `CC(C)=CCC/C(C)=C/CCC1=CCC(C(=O)OCCOC(=O)CCN(CCCN(C)C)CCC(=O)OCCOC(=O)C2CC=C(CC/C=C(\C)CCC=C(C)C)CC2)CC1` (stereo not shown) [Compound 5, (E)-((3,3′-((3-(dimethylamino)propyl)azanediyl)bis(propanoyl))bis(oxy)) bis(ethane-2,1-diyl)bis(4-((E)-4,8-dimethylnona-3,7-dien-1-yl)cyclohex-3-enecarboxylate)], the “PDI DNA” value came out at 0.203, the “Particle Size (nm) DNA” value is given as 187.9 nm, the “PDI RNA” value was found to be 0.200 and the “Particle Size (nm) RNA” value stood at 180.3 nm.

For `CC(C)=CCC/C(C)=C/CCC1=CCC(C(=O)OCCOC(=O)CCN(CCC(=O)OCCOC(=O)C2CC=C(CC/C=C(\C)CCC=C(C)C)CC2)CCN2CCCCC2)CC1` (stereo not shown) [Compound 6, (E)-((3,3′-((2-(piperidin-1-yl)ethyl)azanediyl)bis(propanoyl))bis(oxy)) bis(ethane-2,1-diyl)bis(4-((E)-4,8-dimethylnona-3,7-dien-1-yl)cyclohex-3-enecarboxylate)], the “PDI DNA” value was 0.154, the “Particle Size (nm) DNA” value was 167 nm, the “PDI RNA” value was found to be 0.260 and the “Particle Size (nm) RNA” value came out at 202.2 nm.

For `CC(C)=CCC/C(C)=C/CCC1=CCC(C(=O)OCCOC(=O)CCN(CCCCCCN(CCC(=O)OCCOC(=O)C2CC=C(CC/C=C(\C)CCC=C(C)C)CC2)CCC(=O)OCCOC(=O)C2CC=C(CC/C=C(\C)CCC=C(C)C)CC2)CCC(=O)OCCOC(=O)C2CC=C(CC/C=C(\C)CCC=C(C)C)CC2)CC1` (stereo not shown) [Compound 7], the “PDI DNA” value was determined as 0.221, the “Particle Size (nm) DNA” value was 299.7 nm, the “PDI RNA” value was 0.099 and the “Particle Size (nm) RNA” value was found to be 441.0 nm.

For the compound `CC(C)=CCC/C(C)=C/CCC1=CCC(C(=O)OCCOC(=O)CCN(CCC(=O)OCCOC(=O)C2CC=C(CC/C=C(\C)CCC=C(C)C)CC2)CCN(CCN(CCC(=O)OCCOC(=O)C2CC=C(CC/C=C(\C)CCC=C(C)C)CC2)CCC(=O)OCCOC(=O)C2CC=C(CC/C=C(\C)CCC=C(C)C)CC2)CCN(CCC(=O)OCCOC(=O)C2CC=C(CC/C=C(\C)CCC=C(C)C)CC2)CCC(=O)OCCOC(=O)C2CC=C(CC/C=C(\C)CCC=C(C)C)CC2)CC1` (stereo not shown) [Compound 11], the “PDI DNA” value is recorded as 0.152, the “Particle Size (nm) DNA” value is 396.1 nm, the “PDI RNA” value was determined as 0.145 and the “Particle Size (nm) RNA” value is 355.6 nm.

Regarding `CC(C)CCCC(C)CCCC1CCC(C(=O)OCCOC(=O)CCN(CCCN(C)C)CCC(=O)OCCOC(=O)C2CCC(CCCC(C)CCCC(C)C)CC2)CC1` (stereo not shown) [Compound 12, ((3,3′-((3-(dimethylamino)propyl)azanediyl)bis(propanoyl))bis(oxy)) bis(ethane-2,1-diyl)bis(4-(4,8-dimethylnonyl)cyclohexanecarboxylate)], the “PDI DNA” value came out at 0.235, the “Particle Size (nm) DNA” value was 170.6 nm, the “PDI RNA” value amounted to 0.235 and the “Particle Size (nm) RNA” value is given as 167.6 nm.

Turning to `CC(C)CCCC(C)CCCC1CCC(C(=O)OCCOC(=O)CCN(CCC(=O)OCCOC(=O)C2CCC(CCCC(C)CCCC(C)C)CC2)CCN2CCCCC2)CC1` (stereo not shown) [Compound 13, ((3,3′-((2-(piperidin-1-yl)ethyl)azanediyl)bis(propanoyl))bis(oxy)) bis(ethane-2,1-diyl)bis(4-(4,8-dimethylnonyl)cyclohexanecarboxylate)], the “PDI DNA” value amounted to 0.232, the “Particle Size (nm) DNA” value is listed as 174.1 nm, the “PDI RNA” value worked out at 0.272 and the “Particle Size (nm) RNA” value came to 120.6 nm.

Take `CC(C)CCCC(C)CCCC1CCC(C(=O)OCCOC(=O)CCN(CCCCCCN(CCC(=O)OCCOC(=O)C2CCC(CCCC(C)CCCC(C)C)CC2)CCC(=O)OCCOC(=O)C2CCC(CCCC(C)CCCC(C)C)CC2)CCC(=O)OCCOC(=O)C2CCC(CCCC(C)CCCC(C)C)CC2)CC1` (stereo not shown) [Compound 14]: the “PDI DNA” value was determined as 0.219, the “Particle Size (nm) DNA” value is 348.8 nm, the “PDI RNA” value is on record as 0.104 and the “Particle Size (nm) RNA” value is recorded as 334.8 nm.

Regarding `CC(C)CCCC(C)CCCC1CCC(C(=O)OCCOC(=O)CCN(CCC(=O)OCCOC(=O)C2CCC(CCCC(C)CCCC(C)C)CC2)CC(C)N(CCC(=O)OCCOC(=O)C2CCC(CCCC(C)CCCC(C)C)CC2)CCC(=O)OCCOC(=O)C2CCC(CCCC(C)CCCC(C)C)CC2)CC1` (stereo not shown) [Compound 15], the “PDI DNA” value came to 0.183, the “Particle Size (nm) DNA” value was determined as 297.6 nm, the “PDI RNA” value was found to be 0.115 and the “Particle Size (nm) RNA” value worked out at 362.5 nm.

Take `CC(C)CCCC(C)CCCC1CCC(C(=O)OCCOC(=O)CCN(CCC(=O)OCCOC(=O)C2CCC(CCCC(C)CCCC(C)C)CC2)CCN(CCN(CCC(=O)OCCOC(=O)C2CCC(CCCC(C)CCCC(C)C)CC2)CCC(=O)OCCOC(=O)C2CCC(CCCC(C)CCCC(C)C)CC2)CCN(CCC(=O)OCCOC(=O)C2CCC(CCCC(C)CCCC(C)C)CC2)CCC(=O)OCCOC(=O)C2CCC(CCCC(C)CCCC(C)C)CC2)CC1` (stereo not shown) [Compound 18]: the “PDI DNA” value is listed as 0.072, the “Particle Size (nm) DNA” value worked out at 368.6 nm, the “PDI RNA” value was determined as 0.153 and the “Particle Size (nm) RNA” value worked out at 323.3 nm.

Regarding `CC(C)=CCCC1=CCC(C(=O)OCCOC(=O)CCN(CCCCCCN(CCC(=O)OCCOC(=O)C2CC=C(CCC=C(C)C)CC2)CCC(=O)OCCOC(=O)C2CC=C(CCC=C(C)C)CC2)CCC(=O)OCCOC(=O)C2CC=C(CCC=C(C)C)CC2)CC1` (stereo not shown) [Compound 20], the “PDI DNA” value stood at 0.223, the “Particle Size (nm) DNA” value is given as 304.3 nm, the “PDI RNA” value is reported as 0.082 and the “Particle Size (nm) RNA” value is on record as 316.9 nm.

As to `CC(C)=CCCC1=CCC(C(=O)OCCOC(=O)CCN(CCC(=O)OCCOC(=O)C2CC=C(CCC=C(C)C)CC2)CC(C)N(CCC(=O)OCCOC(=O)C2CC=C(CCC=C(C)C)CC2)CCC(=O)OCCOC(=O)C2CC=C(CCC=C(C)C)CC2)CC1` (stereo not shown) [Compound 21], the “PDI DNA” value was 0.206, the “Particle Size (nm) DNA” value was 268.3 nm, the “PDI RNA” value is given as 0.102 and the “Particle Size (nm) RNA” value is 296.9 nm.

For the compound `CC(C)=CCCC1=CCC(C(=O)OCCOC(=O)CCN(CCC(=O)OCCOC(=O)C2CC=C(CCC=C(C)C)CC2)CCN(CCN(CCC(=O)OCCOC(=O)C2CC=C(CCC=C(C)C)CC2)CCC(=O)OCCOC(=O)C2CC=C(CCC=C(C)C)CC2)CCN(CCC(=O)OCCOC(=O)C2CC=C(CCC=C(C)C)CC2)CCC(=O)OCCOC(=O)C2CCC(CCC=C(C)C)CC2)CC1` (stereo not shown) [Compound 24], the “PDI DNA” value was 0.294, the “Particle Size (nm) DNA” value was determined as 353.7 nm, the “PDI RNA” value was 0.106 and the “Particle Size (nm) RNA” value is 314.9 nm.

In the case of `CC(C)CCCC1CCC(C(=O)OCCOC(=O)CCN(CCCN(C)C)CCC(=O)OCCOC(=O)C2CCC(CCCC(C)C)CC2)CC1` (stereo not shown) [Compound 25], the “PDI DNA” value is 0.227, the “Particle Size (nm) DNA” value is recorded as 188.5 nm, the “PDI RNA” value was determined as 0.143 and the “Particle Size (nm) RNA” value was 177.9 nm.

For the compound `CC(C)CCCC1CCC(C(=O)OCCOC(=O)CCN(CCC(=O)OCCOC(=O)C2CCC(CCCC(C)C)CC2)CCN2CCCCC2)CC1` (stereo not shown) [Compound 26], the “PDI DNA” value turned out to be 0.151, the “Particle Size (nm) DNA” value is reported as 162.1 nm, the “PDI RNA” value is listed as 0.202 and the “Particle Size (nm) RNA” value was found to be 169.4 nm.

`CC(C)CCCC1CCC(C(=O)OCCOC(=O)CCN(CCCCCCN(CCC(=O)OCCOC(=O)C2CCC(CCCC(C)C)CC2)CCC(=O)OCCOC(=O)C2CCC(CCCC(C)C)CC2)CCC(=O)OCCOC(=O)C2CCC(CCCC(C)C)CC2)CC1` (stereo not shown) [Compound 27]: the “PDI DNA” value stood at 0.177, the “Particle Size (nm) DNA” value turned out to be 253.9 nm, the “PDI RNA” value stood at 0.149 and the “Particle Size (nm) RNA” value is recorded as 293.9 nm.

Regarding `CC(C)CCCC1CCC(C(=O)OCCOC(=O)CCN(CCC(=O)OCCOC(=O)C2CCC(CCCC(C)C)CC2)CC(C)N(CCC(=O)OCCOC(=O)C2CCC(CCCC(C)C)CC2)CCC(=O)OCCOC(=O)C2CCC(CCCC(C)C)CC2)CC1` (stereo not shown) [Compound 28], the “PDI DNA” value is on record as 0.12, the “Particle Size (nm) DNA” value was found to be 224.7 nm, the “PDI RNA” value was 0.027 and the “Particle Size (nm) RNA” value came to 254.2 nm.
